These results are taken from ChEMBL document CHEMBL3507680, “University of Dundee, Gates Library screen for HepG2 cell viability”.

A short description of this data set: Human HepG2 cell viability assay in 384 well format. More on the design: dose 125 nL, time 70.5 hour; cytotoxicity at 70.5 h: concentration not given beside the values. The data set is classed as toxicity, cell-based. Particulars: HepG2 cells, read-out: Inhibition.

Structures are written as SMILES.

Regarding `Cc1nc(C)n(CCCNC(=O)C(C)n2ccnc2C(C)C)n1` (stereo unspecified), the cytotoxicity at 70.5 h is -5.67%.
For `Cc1nn(C)c2nc(-c3ccccn3)nc(NC[C@@H]3CCCO3)c12` the value was 2.37%; for `CN1CCCN(C(=O)c2cccc(S(=O)(=O)NCC3(C)COC3)c2)CC1`, -0.00641%.
To `CC(C)N1CCC(C(=O)N2CCc3c(nc(CC4CC4)[nH]c3=O)C2)CC1` belongs -7.62%.
On to `O=C(c1c[nH]c(=O)[nH]1)N1CCCC2(CCC(=O)N(C3CCCC3)C2)C1` (stereo unspecified), for which the cytotoxicity at 70.5 h stood at 1.3%.
As to `O=C(NCCc1noc(C2CCCO2)n1)c1cn2ccsc2n1` (stereo unspecified), the cytotoxicity at 70.5 h was -4.56%.
Consider `CO[C@@H](C(=O)NC1CCOCC1)c1ccccc1`, for which the cytotoxicity at 70.5 h was 9.39%.
Consider `CCc1ccc(CN2CCC(=O)N(CC3CC3)C(C(C)C)C2)nc1` (stereo unspecified), for which the cytotoxicity at 70.5 h was -11.4%.
`CC(C)=CCCC(C)CN1CCC(n2cc(C(=O)NCCO)nn2)CC1` (stereo unspecified): the cytotoxicity at 70.5 h is -4.56%.
Take `O=c1cc(N2CCCCC2)cnn1C[C@H](O)CO`: the cytotoxicity at 70.5 h was -3.44%.
As to `COCC[C@]1(O)CCN(Cc2nc(C)c(C)s2)C[C@H]1C`, the cytotoxicity at 70.5 h is -7.5%.
`CCOc1ccc2[nH]c(=O)c(CN3CCCC(CO)(CO)C3)cc2c1`: the cytotoxicity at 70.5 h is -4.6%.
`Cn1cc(CN2CCCC(CCc3ccc(F)cc3)C2)cn1` (stereo unspecified): the cytotoxicity at 70.5 h stood at 8.18%.
For `CSCCC(=O)N1CCCC(c2ncc[nH]2)C1` (stereo unspecified) the value was -21.7%; for `CSCc1noc(CNC(=O)c2cc(C)c(C)[nH]c2=O)n1`, -5.2%.
With `CCCn1cnnc1CN(C)C(=O)C1CCC(=O)N(C2CCCC2)C1` (stereo unspecified), the cytotoxicity at 70.5 h was -3.21%.
With `CCN(C)C(=O)Cn1c(-c2ccco2)nn(-c2ccccc2OC)c1=O`, the cytotoxicity at 70.5 h amounted to 0.98%.
For `c1cnc2c(-c3nccn3C[C@@H]3CCCN4CCCC[C@H]34)cccc2c1`, the cytotoxicity at 70.5 h came to 2.23%.
For the compound `c1ccc(C2CCCN2Cc2nc(-c3cnccn3)no2)nc1` (stereo unspecified), the cytotoxicity at 70.5 h is -6.26%.
Take `CC(C)Oc1cccc(F)c1C(C(=O)O)N(C)Cc1ccon1` (stereo unspecified): the cytotoxicity at 70.5 h stood at 0.036%.
Turning to `CCCN1CC(NC(=O)Nc2nc(C)n(C(C)C)n2)CC1=O` (stereo unspecified), the cytotoxicity at 70.5 h is -3.82%.
Take `Cc1cc(CNC(=O)c2ccc(C(C)N3CCCCC3)o2)[nH]n1` (stereo unspecified): the cytotoxicity at 70.5 h is -5.86%.
On to `CCN1CC(C(=O)N2CCN(c3cnn(C)c(=O)c3)CC2)CCC1=O` (stereo unspecified), for which the cytotoxicity at 70.5 h is -9.64%.
Turning to `CN(C)CCn1ccnc1C1CCN(C(=O)CCc2cccnc2)CC1`, the cytotoxicity at 70.5 h was -4.1%.
As to `CCN1Cc2nc(OC)c(CNC(=O)CCC3CCCC3)cc2C1=O`, the cytotoxicity at 70.5 h is -11.1%.
With `Cn1cc(CN2CCCC(O)C2)c(-c2ccccc2F)n1` (stereo unspecified), the cytotoxicity at 70.5 h is -6.51%.
With `NC(=O)c1ccc(C2CCCN2C(=O)Cn2nc3ccccc3n2)s1` (stereo unspecified), the cytotoxicity at 70.5 h was found to be 8.36%.
To `Cc1cc(C)n(CCC2CC(=O)Nc3cc4[nH]ncc4cc32)n1` (stereo unspecified) belongs -6.11%; to `O=C1N(CCCc2ccccc2)CCCC1(O)CN1CCC(CO)CC1` (stereo unspecified), -9.35%; to `Cc1nnc(CCNC(=O)Nc2ccc(S(C)(=O)=O)cc2)[nH]1`, 35.6%.
Consider `Cc1c(Cl)cccc1NC(=O)N1CCC2(CC1)NC(=O)CC2C(=O)O` (stereo unspecified), for which the cytotoxicity at 70.5 h was found to be 1.01%.
With `O=C(CN1CCc2ccccc2C1)NCc1cc2n(n1)CCCNC2`, the cytotoxicity at 70.5 h was -6.65%.
To `CCC(CO)N(Cc1ccco1)C(=O)c1ccccc1NC` (stereo unspecified) belongs 0.632%; to `CC(C)Oc1cccc2c1c(NC(=O)CN(C)C)nn2CC(F)(F)F`, -8.54%.
In the case of `CCn1cnnc1CN(C)C(=O)c1cc(COc2cccc(F)c2)[nH]n1`, the cytotoxicity at 70.5 h is 10.8%.
To `O=C(NC1CC1)C1CN(Cc2ccc3c(c2)OCCO3)CCN1` (stereo unspecified) belongs -11.1%; to `O=C(O)[C@@H]1CN(C(=O)CN2CCCCCC2)C[C@H]1c1ccccc1`, 1.47%; to `Cc1ccc(-c2ccnc(NC(c3ncccc3C)C3CC3)n2)c(C)n1` (stereo unspecified), -3.87%.
Take `Cc1cnc(N)nc1N1CCN(CCCO)CC1`: the cytotoxicity at 70.5 h was -10.3%.
Turning to `Cc1ccccc1-c1ncc(CNCc2csc(C(C)C)n2)s1`, the cytotoxicity at 70.5 h is -5.31%.
As to `Cc1ccc(CN(Cc2ccccn2)C(=O)[C@H]2CC[C@@H](N)C2)s1`, the cytotoxicity at 70.5 h is -10.2%.
With `CC(C)N(C)S(=O)(=O)c1ccc2c(c1)CCN(C(=O)c1cnccn1)C2`, the cytotoxicity at 70.5 h is -5.23%.
To `O=C(c1cc(=O)n(-c2ccccc2)[nH]1)N1CCOCC(O)C1` (stereo unspecified) belongs 22.9%.
In the case of `c1ccc(-c2nc3c(c(NCCn4ccnn4)n2)CCNCC3)nc1`, the cytotoxicity at 70.5 h was -6.02%.
Consider `COc1ccc(OCCN2CCOCS2(=O)=O)cc1`, for which the cytotoxicity at 70.5 h was -6.02%.
As for `O=C1NCC(c2ccc(Cl)cc2)Cc2[nH]c(CCN3CCOCC3)nc21` (stereo unspecified), the cytotoxicity at 70.5 h is -12.7%.
For `CC(C)n1ccnc1C1CCN(C(=O)N2CCCC2)CC1` the value was -9.54%; for `O=C(NC1CC1)c1ccnc(N2CCOC(c3ccc(Cl)c(Cl)c3)C2)c1` (stereo unspecified), 9.19%; for `CC(=O)N1CCN(C[C@H]2CC[C@@H](Cc3ccc4ncccc4c3)O2)CC1`, -10.6%.
As for `CCCN1C[C@H]2CC[C@@H]1CN(C(=O)Cn1c(C)cc(C)nc1=O)C2`, the cytotoxicity at 70.5 h was -14.9%.
To `CC(C)=CCN1CCN(CCCOc2ccccc2)[C@H]2CS(=O)(=O)C[C@H]21` belongs -4.88%.
On to `O=C(CN1CCNCC1)NCc1ccc2sccc2c1`, for which the cytotoxicity at 70.5 h was 3.14%.
For `COc1cc(NCC(c2ccccn2)N(C)C)ncn1` (stereo unspecified) the value was -5.7%.
As for `CCc1noc(CN(CC)Cc2cc3ccc(F)cc3[nH]c2=O)n1`, the cytotoxicity at 70.5 h came out at 9.1%.
Regarding `CN(C)S(=O)(=O)N1CCN(CC2CCOc3ccccc3C2)CC1` (stereo unspecified), the cytotoxicity at 70.5 h was -4.7%.
Consider `COCc1cc(NCc2ccccc2OC)ncn1`, for which the cytotoxicity at 70.5 h was -7.89%.
For the compound `Cc1noc(C)c1CCC(=O)N1CCOCC1CC(=O)N1CCCC1` (stereo unspecified), the cytotoxicity at 70.5 h was 1.48%.
Regarding `O=C(O)[C@@]12CN(c3cnccn3)C[C@@H]1CN(C1CCOCC1)C2`, the cytotoxicity at 70.5 h was -4.6%.
For `Cc1[nH]c2c(F)cccc2c1CC(=O)N1CCN(C2CCSCC2)CC1`, the cytotoxicity at 70.5 h was -19.7%.
For `CC1(C(=O)N2CCC(n3cc(C4(O)CCCC4)nn3)CC2)CCCCC1` the value was -9.72%.
Turning to `COc1ccc(OC)c2c(C)cc(N(CCO)CCO)nc12`, the cytotoxicity at 70.5 h is 19.5%.
For `CCn1cc(SCC(=O)N2CCCC(O)(CO)C2)c2ccccc21` (stereo unspecified) the value was -8.91%.
Regarding `CN1CCCN(C(C(=O)O)c2ccc3c(c2)OCO3)CC1` (stereo unspecified), the cytotoxicity at 70.5 h was 0.827%.
Regarding `CCN(CC)c1ccc(C(=O)N2C[C@@H]3CC[C@H](C2)N(CCOC)C3)cc1`, the cytotoxicity at 70.5 h was found to be 23.2%.
`Cc1nc(C)c(C)c(N2C[C@@H](CN3CCCN(C)CC3)[C@@H](CO)C2)n1`: the cytotoxicity at 70.5 h was -1.83%.
To `Cc1noc(C)c1C(=O)N1C[C@H]2CC[C@@H]1CN(c1cnccn1)C2` belongs -5.44%; to `CCCS(=O)(=O)N1CCC2(CCC(=O)N(Cc3ccccc3)C2)CC1`, -4.86%; to `CN1CCCN(C(=O)c2csc(-c3ccc(C(F)(F)F)cc3)n2)CC1`, -7.23%.
For `COc1ccc(F)cc1-c1nc2c([nH]1)c(C1CC1)nn2C` the value was -4.46%.
For `O=C(c1cccnc1O)N1CCC2(CCCO2)CC1` the value was -6.62%.
As for `CCNC(=O)c1cn2cc(-c3ccccc3Cl)n(CC3CC3)c(=O)c2n1`, the cytotoxicity at 70.5 h turned out to be 16.2%.
Turning to `Cc1cc(-c2nc(-c3c(C)ncc4c3CCNC4)no2)nc(C)n1`, the cytotoxicity at 70.5 h stood at 26.9%.
As to `CC(C)c1nnc(CN2C(=O)OC[C@@H]2C(C)C)o1`, the cytotoxicity at 70.5 h is -5.17%.
Consider `Cc1noc(C)c1CN1C[C@@H](C(=O)O)[C@H](c2ccccn2)C1`, for which the cytotoxicity at 70.5 h is -6.58%.
In the case of `CC(c1ccccn1)N(C)Cc1cc2cc3c(cc2[nH]c1=O)OCO3` (stereo unspecified), the cytotoxicity at 70.5 h amounted to 6.6%.
As to `COc1ccc(-c2ccnc(N)c2)c(OC)c1`, the cytotoxicity at 70.5 h stood at 13.7%.
For `CN(C)S(=O)(=O)N1CC[C@]2(O)CCN(CCc3cccc(F)c3)C[C@@H]2C1` the value was -11.2%.
On to `CN(C)C(=O)N1CCN(CCCc2ccccc2)[C@H]2CS(=O)(=O)C[C@H]21`, for which the cytotoxicity at 70.5 h was -1.41%.
In the case of `Nc1nccc(N2C[C@@H](CN3CCCCC3)[C@@H](CO)C2)n1`, the cytotoxicity at 70.5 h is -6.83%.
Regarding `O=C(O)c1ccc(CNC(=O)C2CCN(C(=O)C3CCC3)CC2)s1`, the cytotoxicity at 70.5 h was -12.2%.
To `CCc1[nH]c2c(CNc3nccc(N)n3)cc(F)cc2c1C` belongs 16.1%.
With `Cc1ncc(S(C)(=O)=O)c(N2CCCCCC2)n1`, the cytotoxicity at 70.5 h came out at 7.29%.
Consider `O=C(Nc1ccc(-c2cscn2)cc1)C1CCCN(Cc2ccon2)C1` (stereo unspecified), for which the cytotoxicity at 70.5 h was -1.4%.
Consider `CCn1c(Cn2cncn2)nnc1C1CCN(Cc2cccnc2)CC1`, for which the cytotoxicity at 70.5 h is 9.57%.
For `CN(C)S(=O)(=O)N1CC[C@]2(O)CCN(Cc3cc(F)cc(F)c3)C[C@@H]2C1` the value was 10.9%; for `CC(C)CN1CCc2[nH]cnc2C12CCN(C(=O)c1ccc[nH]1)CC2`, -3.93%; for `OC1(CNCCc2nc3c(s2)CCCC3)CNCCOC1` (stereo unspecified), 4.06%.
For `Clc1ccc2nc(N3CCC(NCCCC4CCOC4)CC3)sc2c1` (stereo unspecified), the cytotoxicity at 70.5 h came out at 48.3%.
With `CC(C)OC(=O)N1CCC(Cc2cccc(C(N)=O)c2)C1` (stereo unspecified), the cytotoxicity at 70.5 h was determined as 35.3%.
Turning to `CN(CCO)C1CCN(c2ncc3c(n2)CCN3c2ccccc2)CC1`, the cytotoxicity at 70.5 h is -3%.
For `CCC[C@@H]1CN(Cc2c[nH]nc2-c2ccc(F)cc2)C[C@H]1NS(C)(=O)=O`, the cytotoxicity at 70.5 h is -3.18%.
Turning to `COCCCN(C)[C@@H]1c2ccccc2C2(CCNCC2)[C@H]1O`, the cytotoxicity at 70.5 h is -9.86%.
Take `COc1ccc(CNC(=O)CCN2C[C@@H](C)[C@](O)(C3CC3)C2)cc1`: the cytotoxicity at 70.5 h is -4.82%.
As for `CCN1CCC(CC(=O)N2CCCCC2CCn2cccn2)CC1` (stereo unspecified), the cytotoxicity at 70.5 h was -11.1%.
For `CN(Cc1csc(-c2ccccc2)n1)C(=O)CCNS(C)(=O)=O`, the cytotoxicity at 70.5 h is -8.29%.
`Cc1cc(C(=O)N2CCC(CCC(=O)NCCN(C)C)CC2)ccc1O`: the cytotoxicity at 70.5 h came out at 24.4%.
